The structures appear in SMILES notation.

For the assay, the system named is HEK293T cells. Kind of assay: Nucleic acid delivery test (plasmid DNA with GFP gene, quantitative PCR). It is filed as cell-based. To be noted: buffered saline HBS, plasmid DNA 4.7 kb with GFP gene, after 48 hours. How it is done: Dimethylformamide solutions (10 mmol/L, 1 μL) of the aromatic compounds shown in Tables 1 and 2 were each dissolved in the buffered salines (25 μL) shown in Tables 1 and 2. However, in Comparative Example 2, no aromatic compound was used, and only dimethylformamide was used. The two resulting solutions were mixed and allowed to stand at room temperature for 30 minutes to complex the aromatic compound with the plasmid DNA. Thereafter, 450 μL of the buffered saline used for the complexification and 500 μL of Dulbecco's modified Eagle medium (DMEM, Wako) containing 10% fetal bovine serum were added, and the resulting complex was added to HEK293T cells (mammalian cells). After 48 hours, the amount of nucleic acid was measured by quantitative PCR.
In Tables 1 to 3, as for the buffered salines, “MEM” means Eagle's minimum essential medium, “TBS” means Tris-buffered saline, “HBS” means HEPES-buffered saline, and “MBS” means MES-buffered saline.
Regarding `c1cc(N2CCNCC2)ccc1-c1cc2c(-c3ccc(N4CCNCC4)cc3)cc3c(-c4ccc(N5CCNCC5)cc4)cc4c(-c5ccc(N6CCNCC6)cc5)cc5c(-c6ccc(N7CCNCC7)cc6)cc1c1c5c4c3c21` [KTU205], the “Amount of nucleic acid relative comparison with Example 1” value is 1.112.
Regarding `NCCc1ccc(-c2cc3c(-c4ccc(CCN)cc4)cc4c(-c5ccc(CCN)cc5)cc5c(-c6ccc(CCN)cc6)cc6c(-c7ccc(CCN)cc7)cc2c2c6c5c4c32)cc1` [KTU192], the “Amount of nucleic acid relative comparison with Example 1” value amounted to 0.6727.
As for `NCCOc1ccc(-c2cc3c(-c4ccc(OCCN)cc4)cc4c(-c5ccc(OCCN)cc5)cc5c(-c6ccc(OCCN)cc6)cc6c(-c7ccc(OCCN)cc7)cc2c2c6c5c4c32)cc1` [KTU204], the “Amount of nucleic acid relative comparison with Example 1” value is listed as 0.6309.
